According to publication PMC4992173, “Divergent synthesis and identification of the cellular targets of deoxyelephantopins” (Nature Communications, 2016):

Tested on: four different cancer cell lines (MCF7, Caco-2, HeLa, MDA-MB-231)
Assay: Cell viability (EC50) in four different cancer cell lines, 3 days, nuclei count
Assay type: cell-based
Conditions: all four tested cell lines
Description: We began our biological investigations by assaying the cytotoxicity of natural deoxyelephantopin (DEP) and its unnatural analogues in four different cancer cell lines (Fig. 5a, Supplementary Figs 6–8).
Figure 5 Assessing the cytotoxicity of deoxyelephantopin (DEP) and analogues. (a) Cell viability measurements in four different cancer cell lines. Cells were treated with compounds for 3 days, the nuclei were stained with DAPI and counted (EC50 values±s.d. shown; n=3). **P<0.005 and ***P<0.0005 by two-sided Student's t-test. (b) Detection of caspase activation and apoptosis in MCF7 cells using FITC-VAD-FMK fluorescent probe (top) or Annexin V staining (bottom). The cells were treated with 1 μM staurosporine (positive control) or 20 μM deoxyelephantopin for 8 h. Confocal microscopy images are shown. EC50, effector concentration for half-maximum response. Scale bars, 30μm. […]
Biological materials. […] Protein concentration was determined using the Bradford assay (Bio-Rad).
Cell culture and preparation of lysates. […] Cells were lysed by sonication to form cell lysates and protein concentration was determined using the Bradford […]
’ cells/mL and HeLa: 1 ’ cells/mL) in a 96-well plate and allowed to attach overnight. […] Cells were imaged using a SpectraMax i3 plate reader equipped with a SpectraMax MiniMax imaging cytometer (Molecular Devices). […]
Caspase activity labeling for fluorescence cell imaging. […]

In the case of `C#CCC[C@H](OC(=O)C(=C)C)[C@H]1C(=C)C(=O)O[C@@H]1c1ccccc1` [24c], the “cytotoxicity rank among alkyne-tagged analogues 24” value was “highest cytotoxicity”.
